Assay results reported in the supplement of paper PMC10307832.

What was measured:
Assay in all cases: relative viability (nuclei count vs DMSO), 5 days (fraction); higher = more cells survive
[1] = compound: CCN1CCN(c2ccc(Nc3cc(N(C)C(=O)Nc4c(Cl)c(OC)cc(OC)c4Cl)ncn3)cc2)CC1 [BGJ398] + Cc1cc(Nc2cc(N3CCN(C)CC3)nc(Sc3ccc(NC(=O)C4CC4)cc3)n2)n[nH]1 [Tozasertib] (partner 0.1 µM)
Outline: (§1)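 Lung cancer cell lines were pin-tool dosed in 1536-well plates on the day after seeding, with either a lone drug or a fixed anchor-drug dose plus five library-drug doses (not always all listed) in √10 steps. Nuclei were counted on 4× images after 5 days. Relative viability is the ratio of treated-well to vehicle-well nuclei counts, with each value a median of duplicate plates.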

[2] = compound: CCN1CCN(c2ccc(Nc3cc(N(C)C(=O)Nc4c(Cl)c(OC)cc(OC)c4Cl)ncn3)cc2)CC1 [BGJ398] + Nc1ncn([C@H]2C[C@H](O)[C@@H](CO)O2)c(=O)n1 [Decitabine] (partner 2 µM)
Outline: as §1

[3] = compound: C1=CC2=NC=CN=C2C=C1/C=C/3\C(=O)NC(=O)S3 + O=C(c1cc(Cc2n[nH]c(=O)c3ccccc23)ccc1F)N1CCN(C(=O)C2CC2)CC1 [Olaparib] (partner 8 µM)
Outline: as §1

[4] = compound: C1=CC2=NC=CN=C2C=C1/C=C/3\C(=O)NC(=O)S3 + CS(=O)(=O)CCNCc1ccc(-c2ccc3ncnc(Nc4ccc(OCc5cccc(F)c5)c(Cl)c4)c3c2)o1 [Lapatinib] (partner 2 µM)
Outline: as §1

| Cell Line | relative viability ([1]; first compound 0.01 µM) | relative viability ([1]; first compound 0.1 µM) | relative viability ([1]; first compound 0.3162 µM) | relative viability ([1]; first compound 1 µM) | relative viability ([2]; first compound 0.01 µM) | relative viability ([2]; first compound 0.03162 µM) | relative viability ([2]; first compound 0.1 µM) | relative viability ([2]; first compound 0.3162 µM) | relative viability ([2]; first compound 1 µM) | relative viability ([3]; first compound 0.02 µM) | relative viability ([3]; first compound 0.06325 µM) | relative viability ([3]; first compound 0.2 µM) | relative viability ([3]; first compound 0.6325 µM) | relative viability ([3]; first compound 2 µM) | relative viability ([4]; first compound 0.02 µM) | relative viability ([4]; first compound 0.06325 µM) | relative viability ([4]; first compound 0.2 µM) | relative viability ([4]; first compound 0.6325 µM) | relative viability ([4]; first compound 2 µM) | relative viability ([1]; first compound 0.03162 µM) |
| --- | --- | --- | --- | --- | --- | --- | --- | --- | --- | --- | --- | --- | --- | --- | --- | --- | --- | --- | --- | --- |
| NCI-H1650 | 0.498 | 0.464 | 0.289 | 0.356 | 0.451 | 0.424 | 0.411 | 0.415 | 0.361 | 0.689 | 0.825 | 0.845 | 0.735 | 0.927 | 0.728 | 0.725 | 0.937 | 0.709 | 0.72 | – |
| NCI-H1651 | 0.732 | 0.633 | 0.575 | 0.581 | 0.463 | 0.604 | 0.664 | 0.602 | 0.458 | 0.181 | 0.154 | 0.183 | 0.178 | 0.188 | 0.793 | 0.899 | 1.05 | 0.718 | 0.685 | 0.629 |
| NCI-H1666 | 0.702 | 0.606 | 0.587 | 0.558 | 0.634 | 0.763 | 0.814 | 0.68 | 0.506 | 0.746 | 0.713 | 0.709 | 0.695 | 0.728 | 0.468 | 0.51 | 0.693 | 0.643 | 0.499 | 0.619 |
| NCI-H1734 | 0.259 | 0.222 | 0.258 | 0.26 | 0.456 | 0.555 | 0.409 | 0.404 | 0.47 | 0.613 | – | 0.673 | 0.562 | 0.226 | 1.02 | – | 1.11 | 0.999 | 0.756 | 0.266 |
| NCI-H1755 | 0.563 | 0.552 | 0.623 | 0.546 | 0.675 | 0.738 | 0.721 | 0.686 | 0.634 | 0.774 | 0.86 | 0.886 | 0.872 | 0.908 | 0.926 | 0.951 | 1.04 | 0.988 | 0.928 | 0.646 |
| NCI-H1793 | 0.337 | 0.3 | 0.3 | 0.287 | 0.479 | 0.457 | 0.451 | 0.423 | 0.376 | 0.805 | 0.752 | 0.801 | 0.779 | 0.702 | 0.702 | 0.532 | 0.832 | 0.725 | 0.773 | 0.351 |
| NCI-H1915 | 0.446 | 0.433 | 0.404 | 0.416 | 0.271 | 0.248 | 0.28 | 0.281 | 0.241 | 0.25 | 0.248 | 0.281 | 0.249 | 0.258 | 1.01 | 1.1 | 1.02 | 0.928 | 0.971 | 0.438 |
| NCI-H1944 | 0.237 | 0.229 | 0.27 | 0.273 | 0.401 | 0.404 | 0.448 | 0.43 | 0.48 | 0.384 | 0.391 | 0.333 | 0.412 | 0.418 | 0.834 | 0.966 | 0.801 | 0.735 | 0.486 | 0.244 |
| NCI-H1975 | 0.774 | 0.695 | 0.5 | 0.415 | 0.492 | 0.454 | 0.423 | 0.406 | 0.381 | 0.728 | 0.743 | 0.805 | 0.768 | 0.794 | 0.707 | 1.24 | 0.907 | 0.84 | 0.791 | 0.758 |
| NCI-H1993 | 0.526 | 0.651 | 0.581 | 0.616 | 0.59 | 0.624 | 0.582 | 0.696 | 0.576 | 0.976 | 1.06 | 1.05 | 1.05 | 0.182 | 0.784 | 0.776 | 0.846 | 0.829 | 0.743 | 0.546 |
| NCI-H2009 | 0.732 | 0.733 | 0.734 | 0.697 | 0.358 | 0.371 | 0.399 | 0.425 | 0.361 | 0.685 | 0.715 | 0.685 | 0.739 | 0.703 | 0.873 | 0.965 | 1.03 | 1.03 | 0.802 | 0.761 |
| NCI-H2023 | 0.309 | 0.301 | 0.232 | 0.255 | 0.197 | 0.226 | 0.23 | 0.218 | 0.211 | 0.428 | 0.461 | 0.508 | 0.492 | 0.498 | 0.872 | 0.735 | 1.01 | 0.764 | 0.466 | 0.345 |
| NCI-H2085 | 0.961 | 0.74 | 0.732 | 0.669 | 0.528 | 0.578 | 0.544 | 0.535 | 0.547 | 0.813 | 0.73 | 0.798 | 0.821 | 0.754 | 0.725 | 0.635 | 0.785 | 0.755 | 0.713 | 0.877 |
| NCI-H2087 | 0.219 | 0.24 | 0.26 | 0.277 | 0.178 | 0.288 | 0.263 | 0.325 | 0.234 | 0.484 | 0.646 | 0.57 | 0.631 | 0.447 | 0.859 | 1.24 | 0.941 | 0.98 | 0.931 | 0.255 |
| NCI-H2126 | 0.892 | 0.911 | 0.927 | 0.868 | 0.608 | 0.601 | 0.611 | 0.612 | 0.566 | 0.932 | 0.946 | 0.841 | 0.904 | 0.799 | 0.625 | 0.898 | 0.758 | 0.739 | 0.361 | 0.825 |
| NCI-H2170 | 0.804 | 0.687 | 0.694 | 0.78 | 0.434 | 0.453 | 0.466 | 0.456 | 0.499 | 0.55 | 0.594 | 0.609 | 0.577 | 0.563 | 0.278 | 0.271 | 0.272 | 0.251 | 0.246 | 0.714 |
